According to patent US6737383B1, “Herbicidal oxadiazolidines” (priority 1999, dated 2004):

How the values were obtained:
bedstraw = assay: Test B pre/postemergence bedstraw; assay type: in vivo, Galium aparine
Summary of the method: (§1)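 Test chemicals in a non-phytotoxic solvent mixture with surfactant were sprayed preemergence onto planted seeds and postemergence onto plants 2 to 18 cm tall (1- to 4-leaf stage). After twelve to sixteen days in a greenhouse, injury was visually rated against untreated controls from 0 (no effect) to 10 (complete control).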

blackgrass = assay: Test B pre/postemergence blackgrass; assay type: in vivo, Alopecurus myosuroides
Summary of the method: as §1

surinam grass = assay: Test B pre/postemergence surinam grass; assay type: in vivo, Brachiaria decumbens
Summary of the method: as §1

cocklebur = assay: Test B pre/postemergence cocklebur; assay type: in vivo, Xanthium strumarium
Summary of the method: as §1

corn = assay: Test B pre/postemergence corn; assay type: in vivo, Zea mays
Summary of the method: as §1

crabgrass = assay: Test B pre/postemergence crabgrass; assay type: in vivo, Digitaria sanguinalis
Summary of the method: as §1

pigweed = assay: Test B pre/postemergence pigweed; assay type: in vivo, Amaranthus retroflexus
Summary of the method: as §1

rape = assay: Test B pre/postemergence rape; assay type: in vivo, Brassica napus
Summary of the method: as §1

soybean = assay: Test B pre/postemergence soybean; assay type: in vivo, Glycine max
Summary of the method: as §1

sugar beet = assay: Test B pre/postemergence sugar beet; assay type: in vivo, Beta vulgaris
Summary of the method: as §1

velvetleaf = assay: Test B pre/postemergence velvetleaf; assay type: in vivo, Abutilon theophrasti
Summary of the method: as §1

wheat = assay: Test B pre/postemergence wheat; assay type: in vivo, Triticum aestivum
Summary of the method: as §1

wild oat = assay: Test B pre/postemergence wild oat; assay type: in vivo, Avena fatua
Summary of the method: as §1

purple nutsedge = assay: Test B pre/postemergence purple nutsedge; assay type: in vivo, Cyperus rotundus
Summary of the method: as §1

smallflower flatsedge = assay: Test B flood test smallflower flatsedge; assay type: in vivo, Cyperus difformis
Summary of the method: (§2)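 Plants were grown to the 2-leaf stage before treatment with test chemical, then held in a greenhouse for twelve to sixteen days. Injury was visually rated against untreated controls on a 0–10 scale, where 0 is no effect and 10 is complete control.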

bamyardgrass = assay: Test B flood test barnyardgrass; assay type: in vivo, Echinochloa crus-galli
Summary of the method: as §2

[1] = Postemergence, Rate 62 g/ha, scale 0 to 10, 0 is no effect, 10 is complete control
[2] = Postemergence, Rate 250 g/ha, scale 0 to 10, 0 no effect, 10 complete control
[3] = Preemergence, Rate 62 g/ha, scale 0 to 10, 0 is no effect, 10 is complete control
[4] = Preemergence, Rate 125 g/ha, scale 0 to 10 (0 no effect, 10 complete control)
[5] = Preemergence, Rate 250 g/ha, scale of 0 to 10 where 0 is no effect and 10 is complete control
[6] = Preemergence, Rate 500 g/ha, scale 0 (no effect) to 10 (complete control)
[7] = Rate 125 g/ha, Postemergence, scale 0 to 10, 0 no effect, 10 complete control
[8] = Rate 500 g/ha, Postemergence, 0 to 10 scale (0 no effect, 10 complete control)
[9] = Rate 125 g/ha, Postemergence section (flood test species), scale 0 to 10, 0 no effect, 10 complete control
[10] = Rate 125 g/ha, Pre-emergence, flood test species, scale 0 to 10 where 0 is no effect and 10 is complete control
[11] = Rate 250 g/ha, headed Pre-emergence (flood test species), scale 0 to 10 (0 no effect, 10 complete control)
[12] = Rate 500 g/ha, headed Pre-emergence (flood test species), scale 0 to 10 (0 no effect, 10 complete control)
[13] = flood test, listed under Postemergence, Rate 250 g/ha, scale 0 to 10, 0 no effect, 10 complete control

COc1ccc(-n2c(=O)on(C(=O)N(c3ccc(F)cc3)C(C)C)c2=O)c(C)c1 [Compound 35] was tested, and the “Bedstraw plant response rating” value (bedstraw; [1]) was 0, the “Bedstraw plant response rating” value (bedstraw; [2]) was 3 and the “Plant response rating, Bedstraw” value (bedstraw; [3]) was 0. For the same molecule, the “Plant response rating, Bedstraw” value (bedstraw; [4]) was 0, the “Plant response rating, Bedstraw” value (bedstraw; [5]) was 0 and the “Bedstraw plant response rating” value (bedstraw; [6]) was 0. The “Bedstraw plant response rating” value (bedstraw; [7]) was 2, the “Bedstraw plant response rating” value (bedstraw; [8]) was 6 and the “Blackgrass plant response rating” value (blackgrass; [1]) was 0. The “Blackgrass plant response rating” value (blackgrass; [2]) was 1, the “Plant response rating, Blackgrass” value (blackgrass; [3]) was 0 and the “Plant response rating, Blackgrass” value (blackgrass; [4]) was 2. The “Plant response rating, Blackgrass” value (blackgrass; [5]) was 2, the “Blackgrass plant response rating” value (blackgrass; [6]) was 3 and the “Blackgrass plant response rating” value (blackgrass; [7]) was 0. For the same molecule, the “Blackgrass plant response rating” value (blackgrass; [8]) was 7, the “B. signalgrass plant response rating” value (surinam grass; [1]) was 0 and the “B. signalgrass plant response rating” value (surinam grass; [2]) was 0. The “Plant response rating, B. signalgrass” value (surinam grass; [3]) was 0, the “Plant response rating, B. signalgrass” value (surinam grass; [4]) was 0 and the “Plant response rating, B. signalgrass” value (surinam grass; [5]) was 3. For the same molecule, the “B. signalgrass plant response rating” value (surinam grass; [6]) was 7, the “B. signalgrass plant response rating” value (surinam grass; [7]) was 0 and the “B. signalgrass plant response rating” value (surinam grass; [8]) was 0. The “Cocklebur plant response rating” value (cocklebur; [1]) was 0, the “Cocklebur plant response rating” value (cocklebur; [2]) was 4 and the “Plant response rating, Cocklebur” value (cocklebur; [3]) was 0. The “Plant response rating, Cocklebur” value (cocklebur; [4]) was 0, the “Plant response rating, Cocklebur” value (cocklebur; [5]) was 0 and the “Cocklebur plant response rating” value (cocklebur; [6]) was 0. The “Cocklebur plant response rating” value (cocklebur; [7]) was 2, the “Cocklebur plant response rating” value (cocklebur; [8]) was 5 and the “Corn plant response rating” value (corn; [1]) was 0. The “Corn plant response rating” value (corn; [2]) was 0, the “Plant response rating, Corn” value (corn; [3]) was 0 and the “Plant response rating, Corn” value (corn; [4]) was 0. For the same molecule, the “Plant response rating, Corn” value (corn; [5]) was 0, the “Corn plant response rating” value (corn; [6]) was 0 and the “Corn plant response rating” value (corn; [7]) was 0. For the same molecule, the “Corn plant response rating” value (corn; [8]) was 0, the “Crabgrass plant response rating” value (crabgrass; [1]) was 0 and the “Crabgrass plant response rating” value (crabgrass; [2]) was 1. For the same molecule, the “Plant response rating, Crabgrass” value (crabgrass; [3]) was 3, the “Plant response rating, Crabgrass” value (crabgrass; [4]) was 3 and the “Plant response rating, Crabgrass” value (crabgrass; [5]) was 6. The “Crabgrass plant response rating” value (crabgrass; [6]) was 10, the “Crabgrass plant response rating” value (crabgrass; [7]) was 0 and the “Crabgrass plant response rating” value (crabgrass; [8]) was 7. The “Redroot pigweed plant response rating” value (pigweed; [1]) was 0, the “Redroot pigweed plant response rating” value (pigweed; [2]) was 9 and the “Plant response rating, Redroot pigweed” value (pigweed; [3]) was 0. For the same molecule, the “Plant response rating, Redroot pigweed” value (pigweed; [4]) was 0, the “Plant response rating, Redroot pigweed” value (pigweed; [5]) was 0 and the “Redroot pigweed plant response rating” value (pigweed; [6]) was 0. The “Redroot pigweed plant response rating” value (pigweed; [7]) was 7, the “Redroot pigweed plant response rating” value (pigweed; [8]) was 9 and the “Rape plant response rating” value (rape; [1]) was 0. The “Rape plant response rating” value (rape; [2]) was 0, the “Plant response rating, Rape” value (rape; [3]) was 0 and the “Plant response rating, Rape” value (rape; [4]) was 0. For the same molecule, the “Plant response rating, Rape” value (rape; [5]) was 0, the “Rape plant response rating” value (rape; [6]) was 0 and the “Rape plant response rating” value (rape; [7]) was 0. The “Rape plant response rating” value (rape; [8]) was 2, the “Soybean plant response rating” value (soybean; [1]) was 1 and the “Soybean plant response rating” value (soybean; [2]) was 1. For the same molecule, the “Plant response rating, Soybean” value (soybean; [3]) was 0, the “Plant response rating, Soybean” value (soybean; [4]) was 0 and the “Plant response rating, Soybean” value (soybean; [5]) was 0. The “Soybean plant response rating” value (soybean; [6]) was 0, the “Soybean plant response rating” value (soybean; [7]) was 1 and the “Sugarbeets plant response rating” value (sugar beet; [1]) was 0. For the same molecule, the “Plant response rating, Sugarbeets” value (sugar beet; [3]) was 0, the “Plant response rating, Sugarbeets” value (sugar beet; [4]) was 0 and the “Plant response rating, Sugarbeets” value (sugar beet; [5]) was 0. For the same molecule, the “Sugarbeets plant response rating” value (sugar beet; [6]) was 0, the “Sugarbeets plant response rating” value (sugar beet; [7]) was 3 and the “Velvetleaf plant response rating” value (velvetleaf; [1]) was 0. The “Velvetleaf plant response rating” value (velvetleaf; [2]) was 0, the “Plant response rating, Velvetleaf” value (velvetleaf; [3]) was 0 and the “Plant response rating, Velvetleaf” value (velvetleaf; [4]) was 0. For the same molecule, the “Plant response rating, Velvetleaf” value (velvetleaf; [5]) was 0, the “Velvetleaf plant response rating” value (velvetleaf; [6]) was 0 and the “Velvetleaf plant response rating” value (velvetleaf; [7]) was 0. The “Wheat plant response rating” value (wheat; [1]) was 0, the “Wheat plant response rating” value (wheat; [2]) was 0 and the “Plant response rating, Wheat” value (wheat; [3]) was 0. The “Plant response rating, Wheat” value (wheat; [4]) was 0, the “Plant response rating, Wheat” value (wheat; [5]) was 0 and the “Wheat plant response rating” value (wheat; [6]) was 0. The “Wheat plant response rating” value (wheat; [7]) was 0, the “Wild oats plant response rating” value (wild oat; [1]) was 0 and the “Wild oats plant response rating” value (wild oat; [2]) was 0. The “Plant response rating, Wild oats” value (wild oat; [4]) was 0, the “Plant response rating, Wild oats” value (wild oat; [5]) was 2 and the “Wild oats plant response rating” value (wild oat; [6]) was 6. The “Wild oats plant response rating” value (wild oat; [7]) was 0, the “Nutsedge plant response rating” value (purple nutsedge; [1]) was 0 and the “Nutsedge plant response rating” value (purple nutsedge; [2]) was 0. For the same molecule, the “Plant response rating, Nutsedge” value (purple nutsedge; [3]) was 0, the “Plant response rating, Nutsedge” value (purple nutsedge; [4]) was 0 and the “Plant response rating, Nutsedge” value (purple nutsedge; [5]) was 0. For the same molecule, the “Nutsedge plant response rating” value (purple nutsedge; [6]) was 0, the “Nutsedge plant response rating” value (purple nutsedge; [7]) was 0 and the “Nutsedge plant response rating” value (purple nutsedge; [8]) was 0. The “S. Flatsedge plant response rating” value (smallflower flatsedge; [1]) was 0, the “S. Flatsedge plant response rating” value (smallflower flatsedge; Pre-emergence, Rate 1000 g/ha, scale 0 to 10 (0 no effect, 10 complete control)) was 0 and the “S. Flatsedge plant response rating” value (smallflower flatsedge; [9]) was 0. For the same molecule, the “S. Flatsedge plant response rating” value (smallflower flatsedge; [10]) was 0, the “S. Flatsedge plant response rating” value (smallflower flatsedge; [11]) was 0 and the “Plant response rating, S. Flatsedge” value (smallflower flatsedge; [12]) was 0. The “S. Flatsedge plant response rating” value (smallflower flatsedge; [13]) was 0, the “Barnyardgrass plant response rating” value (bamyardgrass; [1]) was 0 and the “Barnyardgrass plant response rating” value (bamyardgrass; [9]) was 0. The “Barnyardgrass plant response rating” value (bamyardgrass; [10]) was 0, the “Barnyardgrass plant response rating” value (bamyardgrass; [11]) was 0 and the “Barnyardgrass plant response rating” value (bamyardgrass; Rate 500 g/ha, Postemergence section of Table B, 0 to 10 scale (0 no effect, 10 complete control)) was 0. The “Plant response rating, Barnyardgrass” value (bamyardgrass; [12]) was 0, the “Barnyardgrass plant response rating” value (bamyardgrass; Rate 1000 g/ha, Pre-emergence (as headed), scale 0 to 10) was 0 and the “Barnyardgrass plant response rating” value (bamyardgrass; [13]) was 0.
